Measured values published in patent US9770452B2, “Quinoxaline derivatives as GPR6 modulators” (Takeda Pharmaceutical Company Limited, priority 2012, dated 2017).
Structures can show the parent of a compound that is named as a salt. Where two headings read alike, the source gives them in different places.

Target: T1, GPR6 receptor (Homo sapiens, UniProt P46095)
T1 construct: expressed in transfected cells
Assay: Inhibition of cAMP Activity of GPR6 In Vitro Assay (CHO-K1 cells, HTRF cAMP)
Format: cell-based
Details: inhibition of constitutive cAMP activity of GPR6 expressed in CHO-K1 cells, approximate IC50, read-out: IC50
Procedure, shortened: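 CHO-K1 cells with doxycycline-induced (1 μg/ml, 20 h) GPR6 treated with compounds 45 min at 37 °C in Ringer's buffer (pH 7.4) with 0.5% fatty acid free BSA. Constitutive cAMP measured by Lance HTRF Ultra cAMP; IC50 from four-parameter logistic fit.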

T1 sequence (P46095 whole entry): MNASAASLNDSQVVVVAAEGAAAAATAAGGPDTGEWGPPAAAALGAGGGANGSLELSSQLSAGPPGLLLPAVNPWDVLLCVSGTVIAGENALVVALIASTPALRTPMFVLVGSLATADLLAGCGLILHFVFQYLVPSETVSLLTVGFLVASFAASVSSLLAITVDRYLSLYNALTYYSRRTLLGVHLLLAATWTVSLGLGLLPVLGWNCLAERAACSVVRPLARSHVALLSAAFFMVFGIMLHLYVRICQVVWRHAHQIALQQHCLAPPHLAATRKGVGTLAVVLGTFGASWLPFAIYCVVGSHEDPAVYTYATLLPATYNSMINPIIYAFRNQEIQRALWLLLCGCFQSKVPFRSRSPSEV

IC50 (compounds of Compound Table 2) [nM] | Molecule | IC50 (compounds of Compound Table 1) [nM]
17700 | CC(C)C1CN(c2nc3ccccc3nc2NC2CC2)CCN1Cc1cc(Cl)ccc1Cl (stereo not drawn) [Compound Table 2: Cpd 9, N-cyclopropyl-3-(4-(2,5-dichlorobenzyl)-3-isopropylpiperazin-1-yl)quinoxalin-2-amine] | 
 | (3-bromo-4-methylphenyl)(4-(3-(cyclopropylamino)quinoxalin-2-yl)piperazin-1-yl)methanone, 2,2,2-trifluoroacetic acid salt [Cpd 154] | 720
79600 | CC1CN(C(=O)c2cc(Cl)ccc2Cl)CCN1c1nc2ccccc2nc1NC1CC1 (stereo not drawn) [Compound Table 2: Cpd 8, (4-(3-(cyclopropylamino)quinoxalin-2-yl)-3-methylpiperazin-1-yl)(2,5-dichlorophenyl)methanone, 2,2,2-trifluoroacetic acid salt] | 
 | 3-(4-(2-fluoro-4-methoxyphenoxy)piperidin-1-yl)-N-isopropylpyrido[3,4-b]pyrazin-2-amine, 2,2,2-trifluoroacetic acid salt [Cpd 617] | 54
 | (2-bromophenyl)(1-(2-(cyclopropylamino)pyrido[3,4-b]pyrazin-3-yl)piperidin-4-yl)methanone, 2,2,2-trifluoroacetic acid salt [Cpd 585] | 6040
 | 7-chloro-N-cyclopropyl-3-(4-(2,4-difluorobenzyl)piperidin-1-yl)pyrido[3,4-b]pyrazin-2-amine [Cpd 592] | 26
 | 3-(4-((4-chlorophenyl)sulfonyl)piperazin-1-yl)-2-(cyclopropylamino)quinoxaline-6-carbonitrile, 2,2,2-trifluoroacetic acid salt [Cpd 227] | 3290
 | Cc1cc(C)c2nc(N3CCN(Cc4cc(Cl)ccc4Cl)CC3)c(NC3CC3)nc2c1 [Cpd 103, N-cyclopropyl-3-(4-(2,5-dichlorobenzyl)piperazin-1-yl)-5,7-dimethylquinoxalin-2-amine] | 5310
 | 2-(cyclopropylamino)-3-(4-((2,5-dimethoxyphenyl)sulfonyl)piperazin-1-yl)quinoxaline-6-carbonitrile, 2,2,2-trifluoroacetic acid salt [Cpd 329] | 1300
 | N-cyclopropyl-3-(4-(3-isopropylbenzyl)piperazin-1-yl)quinoxalin-2-amine, 2,2,2-trifluoroacetic acid salt [Cpd 211] | 9440
 | mixture of N-cyclopropyl-3-(4-(2,5-dichlorobenzyl)piperazin-1-yl)-7-methoxyquinoxalin-2-amine, 2,2,2-trifluoroacetic acid salt and N-cyclopropyl-3-(4-(2,5-dichlorobenzyl)piperazin-1-yl)-7-methoxyquinoxalin-2-amine, 2,2,2-trifluoroacetic acid salt [Cpd 47] | 3360
 | (2-(cyclopropylamino)-3-(4-(2,4-difluorobenzyl)piperazin-1-yl)pyrido[3,4-b]pyrazin-7-yl)(morpholino)methanone, 2,2,2-trifluoroacetic acid salt [Cpd 611] | 44
 | 3-(4-(2,5-difluorobenzyl)piperazin-1-yl)-2-((3,3,3-trifluoropropyl)amino)quinoxaline-6-carbonitrile, 2,2,2-trifluoroacetic acid salt [Cpd 400] | 390
 | 3-(4-(2,4-difluorobenzyl)piperidin-1-yl)-2-((2-methoxyethyl)amino)quinoxaline-6-carbonitrile [Cpd 518] | 24
 | CS(=O)(=O)c1ccc(C(=O)N2CCN(c3nc4ccccc4nc3NC3CC3)CC2)c(Cl)c1 [Cpd 67, (2-chloro-4-(methylsulfonyl)phenyl)(4-(3-(cyclopropylamino)quinoxalin-2-yl)piperazin-1-yl)methanone] | 1030
 | 3-(4-(3-chlorophenoxy)piperidin-1-yl)-N-cyclopropylpyrido[3,4-b]pyrazin-2-amine, 2,2,2-trifluoroacetic acid salt [Cpd 426] | 27
 | 3-(4-((2,4-difluorophenyl)fluoromethyl)piperidin-1-yl)-N-isopropylpyrido[3,4-b]pyrazin-2-amine, 2,2,2-trifluoroacetic acid salt [Cpd 621] | 21
 | 3-(4-((5-chloro-2-fluorophenyl)fluoromethyl)piperidin-1-yl)-N-cyclopropylpyrido[3,4-b]pyrazin-2-amine [Cpd 452] | 21
 | COc1ccc(C(=O)N2CCN(c3nc4ccccc4nc3NC3CC3)CC2)cc1Cl [Cpd 9, (3-chloro-4-methoxyphenyl)(4-(3-(cyclopropylamino)quinoxalin-2-yl)piperazin-1-yl)methanone, 2,2,2-trifluoroacetic acid salt] | 10100
 | 3-(4-((4-chloro-2-oxopyridin-1(2H)-yl)methyl)piperidin-1-yl)-2-(cyclopropylamino)quinoxaline-6-carbonitrile [Cpd 526] | 670
 | N-cyclopropyl-3-(4-(pyridin-4-yloxy)piperidin-1-yl)pyrido[3,4-b]pyridin-2-amine [Cpd 554] | 190

IC50 (compounds of Compound Table 2) [nM] | Molecule | IC50 (compounds of Compound Table 1) [nM]
 | 3-(4-(2,4-difluorophenoxy)piperidin-1-yl)-N-isopropylpyrido[3,4-b]pyrazin-2-amine, 2,2,2-trifluoroacetic acid salt [Cpd 620] | 18
 | Cc1cccc(CN2CCN(c3nc4ncccc4nc3NC3CC3)CC2)c1 [Cpd 3, N-cyclopropyl-3-(4-(3-methylbenzyl)piperazin-1-yl)pyrido[2,3-b]pyrazin-2-amine] | 24600
 | 2-(cyclopropylamino)-3-(4-(2,4-difluorobenzyl)piperidin-1-yl)quinoxaline-6-carbonitrile, 2,2,2-trifluoroacetic acid salt [Cpd 416] | 1510
 | N-cyclopropyl-3-(4-((2,4-difluorophenyl)fluoromethyl)piperidin-1-yl)-7-methylpyrido[3,4-b]pyrazin-2-amine, 2,2,2-trifluoroacetic acid salt [Cpd 488] | 29
 | N-cyclopropyl-3-(4-(2,4-difluorophenoxy)piperidin-1-yl)-5-methylpyrido[3,4-b]pyrazin-2-amine, 2,2,2-trifluoroacetic acid salt [Cpd 494] | 2
 | N#Cc1ccc(Nc2nc3ccccc3nc2N2CCN(Cc3cc(Cl)ccc3Cl)CC2)cc1 [Cpd 58, 4-((3-(4-(2,5-dichlorobenzyl)piperazin-1-yl)quinoxalin-2-yl)amino)benzonitrile] | 5530
 | N#Cc1ccc2nc(NC3CC3)c(N3CCC(C(F)c4ccc(F)cc4F)CC3)nc2c1 (stereo not drawn) [Cpd 481] | 24
 | 3-(4-(2,5-dichlorobenzyl)piperazin-1-yl)-N-(1,2,4-triazin-3-yl)quinoxalin-2-amine, 2,2,2-trifluoroacetic acid salt [Cpd 177] | 17800
 | (R)-azetidin-1-yl(2-(cyclopropylamino)-3-(4-((2,4-difluorophenyl)fluoromethyl)piperidin-1-yl)pyrido[3,4-b]pyrazin-7-yl)methanone [Cpd 589] | 69
 | 3-fluoro-4-((1-(3-(isopropylamino)pyrazino[2,3-d]pyridazin-2-yl)piperidin-4-yl)oxy)phenol, 2,2,2-trifluoroacetic acid salt [Cpd 648] | 65
 | (2-chlorophenyl)(1-(2-(cyclopropylamino)pyrido[3,4-b]pyrazin-3-yl)piperidin-4-yl)methanone, 2,2,2-trifluoroacetic acid salt [Cpd 557] | 1920
 | 2-(cyclopropylamino)-3-(4-((2-fluorophenyl)sulfonyl)piperazin-1-yl)quinoxaline-6-carbonitrile, 2,2,2-trifluoroacetic acid salt [Cpd 241] | 650
 | (2-chloro-6-fluorophenyl)(1-(2-(cyclopropylamino)pyrido[3,4-b]pyrazin-3-yl)piperidin-4-yl)methanone [Cpd 575] | 6750
530 | Cc1cc2nc(NC3CC3)c(C3CCN(Cc4ccc(F)cc4F)CC3)nc2cn1 [Compound Table 2: Cpd 6, N-cyclopropyl-3-(1-(2,4-difluorobenzyl)piperidin-4-yl)-7-methylpyrido[3,4-b]pyrazin-2-amine, 2,2,2-trifluoroacetic acid salt] | 
 | 5-chloro-1-((1-(2-(cyclopropylamino)pyrido[3,4-b]pyrazin-3-yl)piperidin-4-yl)methyl)pyridin-2(1H)-one [Cpd 532] | 380
 | (4-chloro-2-fluorophenyl)(1-(2-(cyclopropylamino)pyrido[3,4-b]pyrazin-3-yl)piperidin-4-yl)methanone, 2,2,2-trifluoroacetic acid salt [Cpd 447] | 35
 | Fc1ccc(Nc2nc3ccccc3nc2N2CCN(Cc3cccc(Cl)c3)CC2)cc1 [Cpd 38, 3-(4-(3-chlorobenzyl)piperazin-1-yl)-N-(4-fluorophenyl)quinoxalin-2-amine, 2,2,2-trifluoroacetic acid salt] | 5730
 | c1ccc(CN2CCN(c3nc4ccccc4nc3NC3CC3)CC2)nc1 [Cpd 20, N-cyclopropyl-3-(4-(pyridin-2-ylmethyl)piperazin-1-yl)quinoxalin-2-amine, 22,2,2-trifluoroacetic acid salt] | 69200
 | 3-(1-(2-(cyclopropylamino)pyrido[3,4-b]pyrazin-3-yl)piperidine-4-carbonyl)-4-fluorobenzonitrile, 2,2,2-trifluoroacetic acid salt [Cpd 587] | 78
 | Cc1cccc(CN2CCN(c3nc4ccccc4nc3NC3CC3)CC2)c1 [Cpd 1, N-cyclopropyl-3-(4-(3-methylbenzyl)piperazin-1-yl)quinoxalin-2-amine, 2,2,2-trifluoroacetic acid salt] | 17700
 | N#Cc1ccc2nc(NC3CC3)c(N3CCC(C(F)c4cc(F)ccc4F)CC3)nc2c1 (stereo not drawn) [Cpd 471] | 75
